Experimental data reported in US20250115628A1, “FLUORINATED FLUOROPHORES” (HOWARD HUGHES MEDICAL INSTITUTE, priority 2023, published 2025).
“And” between values parts separate entries of the source, which are not always exact repeats. Identical values can stand only once. Like-named read-outs stand apart in the source and are kept apart here. Each block holds one molecule with its values, some of them ahead of it.

Key:
[1] = rhodamine derivatives; 1:1 dioxane:H2O; data from the inventors' published work; cited from earlier work
[2] = rhodamine derivatives; 10 mM HEPES, pH 7.3; data from the inventors' published work; cited from earlier work
[3] = rhodamine derivatives; 10 mM HEPES, pH 7.3; data from the inventors' published work; cited from earlier work; remark: listed apart in the source
[4] = General UV-vis and fluorescence spectroscopy; assay type: physicochemical
Method: Spectroscopy was performed using 1^−cm path length, 3.5^−mL quartz cuvettes or 1^−cm path length, 1.4^−mL semi-micro quartz cuvettes from Starna Cells. All measurements were taken at ambient temperature (22±2° C.). Absorption spectra were recorded on a Cary Model 100 spectrometer (Agilent), and fluorescence spectra were recorded on a Cary Eclipse fluorometer (Varian). The spectra, maximum absorption wavelength (labs), extinction coefficient at λabs (8), and maximum emission wavelength (em) were measured in 10 mM HEPES, pH 7.3 buffer (rhodamines and Malachite Green derivative 49) or 0.1 M NaOH (fluoresceins); the reported values for e are averages (n=3). Normalized spectra are shown for clarity.

[5] = Quantum yield determination; assay type: physicochemical
Method: All reported absolute fluorescence quantum yield values (Φf) were measured using a Quantaurus-QY spectrometer (model C11374, Hamamatsu). This instrument uses an integrating sphere to determine photons absorbed and emitted by a sample. Measurements were carried out using dilute samples (A<0.1), and self-absorption corrections were performed using the instrument software.^81

[6] = pKa determination (absorbance vs. pH); details: for ηH: Hill coefficient from pH titration data; for pKa: aqueous buffer solutions
Method: For pH 2.0-4.0, the McIlvaine citrate/phosphate buffer system was used. For other pH ranges dye absorbance was measured in buffers containing 150 mM NaCl and 10 mM buffer using the following systems: citrate (pH 4.0-6.0), phosphate (pH 5.8-8.0); tris (pH 7.8-9.0); carbonate (pH 9.2-10.0). Buffer solutions containing 5 M of each fluorophore were prepared (36 samples in duplicate from pH 4.0-10.0 for 51, 53, and 60; 48 samples in duplicate from pH 2.0-10.0 for 76 and 77). Absorbance values were recorded on a Cary Model 100 spectrometer and plotted using GraphPad Prism software. The points were fitted to a sigmoidal dose response curve with a variable slope to determine the Hill coefficient (ηH).

[7] = Determination of KL-Z (lactone-zwitterion equilibrium constant); assay type: physicochemical; set-up: key: KL-Z = (εdw/εmax)/(1−εdw/εmax); εdw measured in 1:1 dioxane/water; details: 1:1 dioxane:H2O
Method: KL-Z was calculated using the following equation:^16, 18 KL-Z=(εdw/εmax)/(1−εdw/εmax). εdw is the extinction coefficient of the dyes in a 1:1 (v/v) dioxane/water solvent mixture; this dioxane/water mixture was chosen to give the maximum spread of KL-Z values across all classes of rhodamines.^18 εmax refers to the maximal extinction coefficients measured in different solvent mixtures empirically determined depending on dye type: 0.1% v/v trifluoroacetic acid in ethanol for 18, 20, 29, 34, 36, 70-72, 81-83, 93-95, 99-102, and 104; 0.1% v/v trifluoroacetic acid in 2,2,2^−trifluoroethanol for all other rhodamine variants. A accurate determination of low KL-Z values is complicated by the relatively poor sensitivity of absorbance measurements.

[8] = fluorescein derivatives, 0.1 N NaOH
[9] = rhodamine derivatives, 10 mM HEPES, pH 7.3
[10] = quinolinyl rhodamines, 10 mM HEPES, pH 7.3

Molecule: [2H]C1([2H])N(c2ccc3c(-c4ccccc4C(=O)[O-])c4ccc(=[N+]5C([2H])([2H])C([2H])([2H])C([2H])([2H])C5([2H])[2H])cc-4oc3c2)C([2H])([2H])C([2H])([2H])C1([2H])[2H] [compound 87]
KL-Z [1]: 4.96
λabs [2]: 554 nm
λem [2]: 576 nm
Φf [3]: 0.80

Molecule: O=C1OC2(c3ccc(O)cc3Oc3cc(O)ccc32)c2c(F)c(F)c(F)c(F)c21 [compound 60, 4,5,6,7^−tetrafluorofluorescein, reference compound]
ε [4, 8]: 85,600 M^−1cm^−1
λabs [4, 8]: 508 nm
λem [4, 8]: 527 nm
Φf [5, 8]: 0.85
ηH [6]: 0.92

Molecule: O=C1OC2(c3ccc(O)cc3Oc3cc(O)ccc32)c2ccccc21 [compound 73, reference compound]
ε [4, 8]: 90,000 M^−1cm^−1
λabs [4, 8]: 490 nm
λem [4, 8]: 514 nm
Φf [5, 8]: 0.92
ηH [6]: 0.97

Molecule: O=C1OC2(c3cc(F)c(O)cc3Oc3cc(O)c(F)cc32)c2ccccc21 [compound 76, reference compound]
ε [4, 8]: 82,400 M^−1cm^−1
λabs [4, 8]: 490 nm
λem [4, 8]: 514 nm
Φf [5, 8]: 0.97
ηH [6]: 0.98

Molecule: JF669 [compound 2]
KL-Z [1]: 0.262
ε [2]: 112,000 M^−1cm^−1
λabs [2]: 669 nm
λem [2]: 662 nm
Φf [3]: 0.37

Molecule: C[Si]1(C)C2=CC(=N)C=CC2=C(c2ccccc2C(=O)O)c2ccc(N)cc21 [compound 83]
ε [2]: 2,200 M^−1cm^−1
λabs [2]: 587 nm
λem [2]: 609 nm
Φf [3]: 0.53

Molecule: N=c1ccc2c(-c3ccccc3C(=O)O)c3ccc(N)cc3oc-2c1 [compound 81]
KL-Z [1]: 2.53
ε [2]: 75,000 M^−1cm^−1
λabs [2]: 487 nm
λem [2]: 520 nm
Φf [3]: 0.88

ε [4, 8]: 96,700 M^−1cm^−1
λabs [4, 8]: 564 nm
λem [4, 8]: 585 nm
Φf [5, 8]: 0.54
ηH [6]: 1.02
pKa [6]: 6.86
Molecule: CC1(C)C2=CC(=O)C=CC2=C(c2c(F)c(F)c(F)c(F)c2C(=O)O)c2ccc(O)cc21 [compound 51, 4,5,6,7^−Tetrafluoro-carbofluorescein]

Molecule: C[Si]1(C)C2=CC(=O)C=CC2=C(c2c(F)c(F)c(F)c(F)c2C(=O)O)c2ccc(O)cc21 [compound 55, 4,5,6,7^−Tetrafluoro-Si-fluorescein]
ε [4, 8]: 84,100 M^−1cm^−1
λabs [4, 8]: 598 nm
λem [4, 8]: 614 nm
Φf [5, 8]: 0.50
ηH [6]: 1.23
pKa [6]: 7.08

Molecule: CN(c1ccccc1)c1ccc2c(-c3ccccc3C(=O)[O-])c3ccc(=[N+](C)c4ccccc4)cc-3oc2c1 [compound 90]
KL-Z [1]: 0.296
ε [2]: 16,000 M^−1cm^−1
λabs [2]: 549 nm

Molecule: O=C1OC2(c3cc(F)c(O)cc3Oc3cc(O)c(F)cc32)c2c(F)c(F)c(F)c(F)c21 [compound 77, reference compound]
ε [4, 8]: 81,200 M^−1cm^−1
λabs [4, 8]: 508 nm
λem [4, 8]: 527 nm
Φf [5, 8]: 0.18
ηH [6]: 1.00

Molecule: C[Si]1(C)c2cc(N3CCC3)ccc2C2(OC(=O)c3ccccc32)c2ccc(N3CCC3)cc21 [compound 1, JF646]
ε [2]: 5,600 M^−1cm^−1
λabs [2]: 646 nm
λem [2]: 664 nm
Φf [3]: 0.54

Molecule: [2H]C1([2H])N(c2ccc3c(c2)[Si](C)(C)C2=CC(=[N+]4C([2H])([2H])C([2H])([2H])C([2H])([2H])C4([2H])[2H])C=CC2=C3c2ccccc2C(=O)[O-])C([2H])([2H])C([2H])([2H])C1([2H])[2H] [compound 89, JFX650]
ε [2]: 17,600 M^−1cm^−1
λabs [2]: 650 nm
λem [2]: 667 nm
Φf [3]: 0.53

Molecule: CC1(C)c2cc(N3CCC3)ccc2C2(OC(=O)c3ccccc32)c2ccc(N3CCC3)cc21 [compound 86, JF608]
KL-Z [1]: 0.0911
ε [2]: 99,000 M^−1cm^−1
λabs [2]: 608 nm
λem [2]: 631 nm
Φf [3]: 0.67

ε [4, 8]: 91,100 M^−1cm^−1
λabs [4, 8]: 576 nm
λem [4, 8]: 599 nm
Φf [5, 8]: 0.29
ηH [6]: 1.00
pKa [6]: 5.47
Molecule: CC1(C)C2=CC(=O)C(F)=CC2=C(c2c(F)c(F)c(F)c(F)c2C(=O)O)c2cc(F)c(O)cc21 [compound 53, 2′,4,5,6,7,7′-Hexafluorocarbofluorescein]

Molecule: [2H]C1([2H])N(c2ccc3c(c2)C(C)(C)C2=CC(=[N+]4C([2H])([2H])C([2H])([2H])C([2H])([2H])C4([2H])[2H])C=CC2=C3c2ccccc2C(=O)[O-])C([2H])([2H])C([2H])([2H])C1([2H])[2H] [compound 88]
KL-Z [1]: 0.880
ε [2]: 130,000 M^−1cm^−1
λabs [2]: 612 nm
λem [2]: 633 nm
Φf [3]: 0.70

Molecule: CC1(C)C2=CC(=N)C=CC2=C(c2ccccc2C(=O)O)c2ccc(N)cc21 [compound 82]
KL-Z [1]: 0.0127
ε [2]: 65,000 M^−1cm^−1
λabs [2]: 552 nm
λem [2]: 577 nm
Φf [3]: 0.64

ε [4, 9]: 148,000 M^−1cm^−1
λabs [4, 9]: 660 nm
λem [4, 9]: 673 nm
Φf [5, 9]: 0.54
KL-Z ([7]; rhodamine derivatives): 7.55
Molecule: CCc1cc2c(c3c1=[N+](C)CCC3)C(C)(C)c1c(cc3c4c1CCCN4CCC3)C=2c1c(F)c(F)c(F)c(F)c1C(=O)[O-] [compound 57, JF660]

Molecule: CC1CC(C)(C)Nc2cc3c(cc21)C(c1c(F)c(F)c(F)c(F)c1C(=O)O)=c1cc2c(cc1O3)=NC(C)(C)CC2C (mixture of isomers) [compound 18, JF563]
ε [4, 10]: 125,000 M^−1cm^−1
λabs [4, 10]: 563 nm
λem [4, 10]: 581 nm
Φf [5, 10]: 0.73
KL-Z ([7]; quinolinyl rhodamines): 15.3

Molecule: CN1CCc2cc3c(cc21)[Si](C)(C)c1cc2c(cc1=C3c1c(F)c(F)c(F)c(F)c1C(=O)[O-])CC[N+]=2C [compound 108, SiRF712]
ε [4, 9]: 98,800 M^−1cm^−1
λabs [4, 9]: 712 nm
λem [4, 9]: 735 nm
Φf [5, 9]: 0.09
KL-Z ([7]; rhodamine derivatives): 1.97

Molecule: CCC1=CC2=C(c3c(F)c(F)c(F)c(F)c3C(=O)O)c3cc4c(cc3[Si](C)(C)C2=CC1=NC)NCCC4 [compound 29, 4,5,6,7^−Tetrafluoro-Si-Q-rhodamine]
ε [4, 9]: 124,000 M^−1cm^−1
λabs [4, 9]: 659 nm and 689 nm
λem [4, 9]: 675 nm
Φf [5, 9]: 0.25
KL-Z ([7]; rhodamine derivatives): 2.39

Molecule: CC1CC(C)(C)Nc2cc3[o+]c4cc5c(cc4c(-c4ccccc4C(=O)[O-])c3cc21)C(C)CC(C)(C)N5 (stereo not shown) [compound 99, 2^−(2,2,4,8,10,10^−Hexamethyl-1,2,3,4,8,9,10,11-octahydropyrano[3,2^−g:5,6^−g′]diquinolin-13^−ium-6^−yl)benzoate]
ε [4, 10]: 112,000 M^−1cm^−1
λabs [4, 10]: 542 nm
λem [4, 10]: 564 nm
Φf [5, 10]: 0.83
KL-Z ([7]; quinolinyl rhodamines): 6.30

ε [4, 9]: 137,000 M^−1cm^−1
λabs [4, 9]: 657 nm
λem [4, 9]: 672 nm
Φf [5, 9]: 0.50
KL-Z ([7]; rhodamine derivatives): 4.97
Molecule: CCc1cc2c(c3c1=[N+](C)CCC3)C(C)(C)c1cc3c(cc1C=2c1c(F)c(F)c(F)c(F)c1C(=O)[O-])C(C)CC(C)(C)N3CC (stereo not shown) [compound 59, JF657]
